# Data taken from article PMC5259778, “Candidate pheromone receptors of codling moth Cydia pomonella respond to pheromones and kairomones” (Scientific Reports, 2017).
# How the values were obtained:
# [1] = ref Scifinder, 2015; Chemspider; cited from earlier work
# CpomOR6a = assay: Single sensillum recordings, CpomOR6a expressed in Drosophila at1 OSNs; format: cell-based, Cydia pomonella; settings: for response compared with the solvent: 10 μg doses, Mann-Whitney U Test, p < 0.05; for Spike/s: 10 μg per stimulus
# Description: (§1) To perform heterologous expression in D. melanogaster OSNs, CpomORs were amplified using primers in Table 2 and purified PCR products were cloned into the PCR8/GW/TOPO plasmid (Invitrogen) following the recommended protocol. Cassettes with inserts were then transferred from their PCR8/GW/TOPO plasmids to the destination vector (pUASg-HA.attB, constructed by E. Furger and J. Bischof, kindly provided by the Basler group, Zürich), using the Gateway LR Clonase II kit (Invitrogen). The integrity and orientation of inserts was confirmed by sequencing (Sanger sequencer, 3730xl). Transformant UAS-CpomOR3 and UAS-CpomOR1 lines were generated by Best Gene (Chino Hills, CA, USA), using the PhiC31 integrase system, while the transformant UAS-CpomOR6a line was generated in our labs. Briefly, recombinant pUASg-HA.attB-CpomOR plasmids were injected into embryos of a D. melanogaster line containing an attP insertion site within the third chromosome (genotype y1 M{vas-int.Dm}ZH-2A w*; M{3xP3-RFP.attP}ZH-86Fb), leading to non-random integration. To drive expression of CpomORs in at1 OSNs in place of the endogenous receptor Or67d, transformant UAS-CpomOR lines were crossed to the knock-in Or67d^GAL4 line (kindly provided by Barry Dickson) to generate double homozygous lines w^+;UAS-CpomOR; Or67d^GAL4. Additionally, to drive expression of CpomOR3 in ab3A OSNs, the UAS-CpomOR3 line was crossed to the Δhalo;Or22a-Gal4 mutant line[20][57]. To verify insertion of UAS-CpomORs constructs into the genome, gDNA was extracted and used as template in PCR with primers for the full ORF of CpomORs (Table 2).
# (§2) CpomOR1 and CpomOR6a expressed in at1 OSNs, and CpomOR3 expressed in ab3A OSNs, were tested through single sensillum recordings (SSR). Three to 8-day-old flies were immobilized in 100 μL pipette tips with only the top half of the head protruding. The left antenna of each insect was gently pushed with a glass capillary against a double-sided adhesive tape placed on a piece of glass. This piece of glass and the pipette tip were fixed with dental wax on a microscope slide. Electrolytically sharpened tungsten electrodes (Harvard Apparatus Ltd, Edenbridge, United Kingdom) were used to penetrate the insect´s body. The reference electrode was manually inserted in the right eye of the fly, while the recording electrode was manoeuvred with a DC-3K micromanipulator equipped with a PM-10 piezo translator (Märzhäuser Wetzler GmbH, Wetzler, Germany) and inserted at the base of the determined sensilla. Signals coming from the olfactory sensory neurons were amplified 10 times with a probe (INR-02, Syntech, Hilversum, the Netherlands), digitally converted through an IDAC-4-USB (Syntech) interface, and visualized and analysed with the software Autospike v. 3.4 (Syntech). A constant flow of 0.65 m/s of humidified air (charcoal-filtered) was delivered through a glass tube to the antenna. The panel of odorants was given to the insect by inserting pipettes containing a piece of filter paper with the correspondent stimulus in a lateral hole of the glass tube and puffing a flow of 2.5 mL of air during 0.5 s through the pipette. For CpomOR1 and CpomOR6a the panel of odorants was prepared by applying 10 μL of a solution of 1.0 μg/μL of the compounds in Supplementary Dataset S2 and Supplementary Dataset S3, for a total amount of 10 μg per stimulus. In the case of CpomOR3, a similar dilution process was used for the dose response experiments of ethyl-(E,Z)-2,4-decadienoate and methyl-(E,Z)-2,4-decadienoate, as well for dose response of experiments of codlemone acetate in CpomOR6a. Compounds were diluted from concentrations ranging from 0.01 ng/μL to 10 μg/μL in decadic steps, allowing reaching concentrations from 100 pg to 100 μg per stimulus when 10 μL of the dilution was applied in the piece of filter paper. […]
# CpomOR1 = assay: Single sensillum recordings, CpomOR1 expressed in Drosophila at1 OSNs; format: cell-based, Cydia pomonella; settings: 10 μg per stimulus
# Description: as §1, §2
compound,measurement,setting,value
C=CCc1ccc(O)c(OC)c1 [eugenol],LogP,[1],2.403±0.236
"C/C=C\C=C/CCCCCCCOC(C)=O [(Z,Z)-8,10:12Ac, (Z,Z)-8,10-dodecadien-1yl acetate]",response compared with the solvent,CpomOR6a,significantly activated
same,Spike/s,CpomOR6a; replicate 1,14 Spike/s
same,Spike/s,CpomOR6a; replicate 2,12 Spike/s
same,Spike/s,CpomOR6a; replicate 3,10 Spike/s
same,Spike/s,CpomOR6a; replicate 4,16 Spike/s
same,Spike/s,CpomOR6a; replicate 5,20 Spike/s
same,Spike/s,CpomOR6a; replicate 6,20 Spike/s
same,Spike/s,CpomOR6a; replicate 7,10 Spike/s
same,Spike/s,CpomOR6a; replicate 8,32 Spike/s
same,Spike/s,CpomOR6a; replicate 9,12 Spike/s
"CCCc1ccc(O)c(OC)c1 [dihydro eugenol, 2-methoxy-4-propylphenol]",LogP,[1],2.943±0.224
same,Solubility (M),[1],"6,00E-03 M"
CCC(C)CO (stereo not shown) [2-methyl-1-butanol],LogP,[1],1.192±0.187
"CCC/C=C\CCCCCCCOC(C)=O [(Z)-8:12Ac, (Z)-8-dodecadien-1yl acetate]",Spike/s,CpomOR6a; replicate 1,0 Spike/s
same,Spike/s,CpomOR6a; replicate 2,0 Spike/s
same,Spike/s,CpomOR6a; replicate 3,0 Spike/s
same,Spike/s,CpomOR6a; replicate 4,4 Spike/s
same,Spike/s,CpomOR6a; replicate 5,-2 Spike/s
same,Spike/s,CpomOR6a; replicate 6,22 Spike/s
same,Spike/s,CpomOR6a; replicate 7,32 Spike/s
same,Spike/s,CpomOR6a; replicate 8,6 Spike/s
same,Spike/s,CpomOR6a; replicate 9,-8 Spike/s
C/C1=C\CC/C(C)=C/CC(C)(C)/C=C/C1 [α-humulene],LogP,[1],6.592±0.249
same,Solubility (M),[1],"1,10E-08 M"
Dodecadien-1-yl acetate [12Ac],Spike/s,CpomOR6a; replicate 1,4 Spike/s
same,Spike/s,CpomOR6a; replicate 2,4 Spike/s
same,Spike/s,CpomOR6a; replicate 3,-2 Spike/s
same,Spike/s,CpomOR6a; replicate 4,6 Spike/s
same,Spike/s,CpomOR6a; replicate 5,10 Spike/s
same,Spike/s,CpomOR6a; replicate 6,6 Spike/s
same,Spike/s,CpomOR6a; replicate 7,0 Spike/s
same,Spike/s,CpomOR6a; replicate 8,12 Spike/s
same,Spike/s,CpomOR6a; replicate 9,-12 Spike/s
CCC/C=C/CCCCCCCO [(E8)-12:OH],Spikes/s,CpomOR1; replicate 1,-2 Spikes/s
same,Spikes/s,CpomOR1; replicate 2,4 Spikes/s
same,Spikes/s,CpomOR1; replicate 3,0 Spikes/s
same,Spikes/s,CpomOR1; replicate 4,0 Spikes/s
same,Spikes/s,CpomOR1; replicate 5,2 Spikes/s
CCCCCCCCO [1-octanol],LogP,[1],2.876±0.177
COC(=O)c1ccccc1 [methyl benzoate],Solubility (M),[1],"0,02 M"
CC(C)=CCC/C(C)=C/CO [geraniol],LogP,[1],2.942±0.271
C=CCc1ccc(OC)cc1 [4-Allylanisole],LogP,[1],3.088±0.223
C=CC(=C)CC/C=C(\C)CCC=C(C)C [(E)-β-farnesene],Spikes/s,CpomOR1; replicate 1,0 Spikes/s
same,Spikes/s,CpomOR1; replicate 2,4 Spikes/s
same,Spikes/s,CpomOR1; replicate 3,2 Spikes/s
same,Spikes/s,CpomOR1; replicate 4,0 Spikes/s
same,Spikes/s,CpomOR1; replicate 5,2 Spikes/s
CC(=O)OCC=C(C)C [prenyl acetate],LogP,[1],2.017±0.274
same,Solubility (M),[1],"0,069 M"
"C=C/C=C(\C)CCC=C(C)C [4,8-Dimethyl-1,(E)-3,7-nonatriene]",Spikes/s,CpomOR1; replicate 1,2 Spikes/s
same,Spikes/s,CpomOR1; replicate 2,-6 Spikes/s
same,Spikes/s,CpomOR1; replicate 3,2 Spikes/s
same,Spikes/s,CpomOR1; replicate 4,4 Spikes/s
same,Spikes/s,CpomOR1; replicate 5,-8 Spikes/s
"C=C(C)C1CC=C(C=O)CC1 (stereo not shown) [1,8-p-menthadien-7-al (perillaldehyde), 1,8-p-menthadien-7-al]",LogP,[1],3.053 ± 0.335
same,Solubility,[1],6.1 mM
NCCc1ccccc1 [phenylethylamine],LogP,[1],1.435±0.189
same,Solubility (M),[1],"0,085 M"
C/C=C/CCCCCCCCCO [(E10)-12:OH],Spikes/s,CpomOR1; replicate 1,-2 Spikes/s
same,Spikes/s,CpomOR1; replicate 2,-2 Spikes/s
same,Spikes/s,CpomOR1; replicate 3,0 Spikes/s
same,Spikes/s,CpomOR1; replicate 4,-4 Spikes/s
same,Spikes/s,CpomOR1; replicate 5,2 Spikes/s
CCCCCC(=O)OCCCC [butyl hexanoate],Spikes/s,CpomOR1; replicate 1,4 Spikes/s
same,Spikes/s,CpomOR1; replicate 2,-4 Spikes/s
same,Spikes/s,CpomOR1; replicate 3,2 Spikes/s
same,Spikes/s,CpomOR1; replicate 4,0 Spikes/s
same,Spikes/s,CpomOR1; replicate 5,-8 Spikes/s
"C/C=C\C=C\CCCCCCCOC(C)=O [(E,Z)-8,10:12Ac, (E,Z)-8,10-dodecadien-1yl acetate]",response compared with the solvent,CpomOR6a,significantly activated
same,Spike/s,CpomOR6a; replicate 1,6 Spike/s
same,Spike/s,CpomOR6a; replicate 2,10 Spike/s
same,Spike/s,CpomOR6a; replicate 3,16 Spike/s
same,Spike/s,CpomOR6a; replicate 4,6 Spike/s
same,Spike/s,CpomOR6a; replicate 5,8 Spike/s
same,Spike/s,CpomOR6a; replicate 6,24 Spike/s
same,Spike/s,CpomOR6a; replicate 7,16 Spike/s
same,Spike/s,CpomOR6a; replicate 8,34 Spike/s
same,Spike/s,CpomOR6a; replicate 9,2 Spike/s
C=C/C(C)=C/CC=C(C)C [(E)-β-ocimene],Spikes/s,CpomOR1; replicate 1,2 Spikes/s
same,Spikes/s,CpomOR1; replicate 2,8 Spikes/s
same,Spikes/s,CpomOR1; replicate 3,0 Spikes/s
same,Spikes/s,CpomOR1; replicate 4,2 Spikes/s
same,Spikes/s,CpomOR1; replicate 5,4 Spikes/s
"C/C=C\C=C\CCCCCCCO [(E8,Z10)-12:OH]",Spikes/s,CpomOR1; replicate 1,-2 Spikes/s
same,Spikes/s,CpomOR1; replicate 2,-2 Spikes/s
same,Spikes/s,CpomOR1; replicate 3,0 Spikes/s
same,Spikes/s,CpomOR1; replicate 4,-2 Spikes/s
same,Spikes/s,CpomOR1; replicate 5,-2 Spikes/s
CC/C=C/CCCCCCCCO [(E9)-12:OH],Spikes/s,CpomOR1; replicate 1,-4 Spikes/s
same,Spikes/s,CpomOR1; replicate 2,0 Spikes/s
same,Spikes/s,CpomOR1; replicate 3,2 Spikes/s
same,Spikes/s,CpomOR1; replicate 4,4 Spikes/s
same,Spikes/s,CpomOR1; replicate 5,-2 Spikes/s
"CCC/C=C/CCCCCCCOC(C)=O [(E)-8:12Ac, (E)-8-dodecadien-1-yl acetate]",Spike/s,CpomOR6a; replicate 1,10 Spike/s
same,Spike/s,CpomOR6a; replicate 2,0 Spike/s
same,Spike/s,CpomOR6a; replicate 3,4 Spike/s
same,Spike/s,CpomOR6a; replicate 4,4 Spike/s
same,Spike/s,CpomOR6a; replicate 5,12 Spike/s
same,Spike/s,CpomOR6a; replicate 6,26 Spike/s
same,Spike/s,CpomOR6a; replicate 7,30 Spike/s
same,Spike/s,CpomOR6a; replicate 8,30 Spike/s
same,Spike/s,CpomOR6a; replicate 9,10 Spike/s
"C/C=C\C=C/CCCCCCCO [(Z8,Z10)-12:OH]",Spikes/s,CpomOR1; replicate 1,-2 Spikes/s
same,Spikes/s,CpomOR1; replicate 2,0 Spikes/s
same,Spikes/s,CpomOR1; replicate 3,0 Spikes/s
same,Spikes/s,CpomOR1; replicate 4,4 Spikes/s
same,Spikes/s,CpomOR1; replicate 5,12 Spikes/s
"C/C=C/C=C\CCCCCCCO [(Z8,E10)-12:OH]",Spikes/s,CpomOR1; replicate 1,0 Spikes/s
same,Spikes/s,CpomOR1; replicate 2,0 Spikes/s
same,Spikes/s,CpomOR1; replicate 3,6 Spikes/s
same,Spikes/s,CpomOR1; replicate 4,8 Spikes/s
same,Spikes/s,CpomOR1; replicate 5,-4 Spikes/s
"C/C=C/C=C\CCCCCCCOC(C)=O [(Z,E)-8,10:12Ac, (Z,E)-8,10-dodecadien-1yl acetate]",Spike/s,CpomOR6a; replicate 1,10 Spike/s
same,Spike/s,CpomOR6a; replicate 2,2 Spike/s
same,Spike/s,CpomOR6a; replicate 3,-4 Spike/s
same,Spike/s,CpomOR6a; replicate 4,8 Spike/s
same,Spike/s,CpomOR6a; replicate 5,0 Spike/s
same,Spike/s,CpomOR6a; replicate 6,18 Spike/s
same,Spike/s,CpomOR6a; replicate 7,26 Spike/s
same,Spike/s,CpomOR6a; replicate 8,40 Spike/s
same,Spike/s,CpomOR6a; replicate 9,10 Spike/s
"C/C=C/CCCCCCCCCOC(C)=O [(E)-10:12Ac, (E)-10-dodecadien-1-yl acetate]",response compared with the solvent,CpomOR6a,significantly activated
same,Spike/s,CpomOR6a; replicate 1,26 Spike/s
same,Spike/s,CpomOR6a; replicate 2,26 Spike/s
same,Spike/s,CpomOR6a; replicate 3,28 Spike/s
same,Spike/s,CpomOR6a; replicate 4,60 Spike/s
same,Spike/s,CpomOR6a; replicate 5,34 Spike/s
same,Spike/s,CpomOR6a; replicate 6,36 Spike/s
same,Spike/s,CpomOR6a; replicate 7,50 Spike/s
same,Spike/s,CpomOR6a; replicate 8,66 Spike/s
same,Spike/s,CpomOR6a; replicate 9,26 Spike/s
"C/C=C\C/C=C/CCCCCCCCOC(C)=O [(Z9,E12)-14:Ac]",Spikes/s,CpomOR1; replicate 1,2 Spikes/s
same,Spikes/s,CpomOR1; replicate 2,-4 Spikes/s
same,Spikes/s,CpomOR1; replicate 3,2 Spikes/s
same,Spikes/s,CpomOR1; replicate 4,-10 Spikes/s
same,Spikes/s,CpomOR1; replicate 5,0 Spikes/s
CCCCCCCCCCCCO [1-dodecanol],Spikes/s,CpomOR1; replicate 1,-2 Spikes/s
same,Spikes/s,CpomOR1; replicate 2,4 Spikes/s
same,Spikes/s,CpomOR1; replicate 3,2 Spikes/s
same,Spikes/s,CpomOR1; replicate 4,-2 Spikes/s
same,Spikes/s,CpomOR1; replicate 5,2 Spikes/s
"C/C=C\CCCCCCCCCOC(C)=O [(Z)-10:12Ac, (Z)-10-dodecadien-1-yl acetate]",Spike/s,CpomOR6a; replicate 1,0 Spike/s
same,Spike/s,CpomOR6a; replicate 2,6 Spike/s
same,Spike/s,CpomOR6a; replicate 3,2 Spike/s
same,Spike/s,CpomOR6a; replicate 4,2 Spike/s
same,Spike/s,CpomOR6a; replicate 5,6 Spike/s
same,Spike/s,CpomOR6a; replicate 6,12 Spike/s
same,Spike/s,CpomOR6a; replicate 7,14 Spike/s
same,Spike/s,CpomOR6a; replicate 8,4 Spike/s
same,Spike/s,CpomOR6a; replicate 9,4 Spike/s
